In ChEMBL document CHEMBL5096164, “In Vivo Profiling of a Natural Alkaloid, Anatabine, in Rodents: Pharmacokinetics and Anti-Inflammatory Efficacy” (J Nat Prod, 2021):

Experiments:
in vivo = settings: rat, plasma
[1] = Half life in mouse plasma

Compound CN1CCC[C@H]1c1cccnc1 [NICOTINE] has a half-life (in vivo) of 54 min and a half-life [1] of 6 min.
